Test systems include K562; U-251; SNB-75; SW-620; M14; HCT-15; SK-MEL-2; 786-0; OVCAR-4; HCT-116; CCRF-CEM; IGROV-1; SK-MEL-28; LOX IMVI; HT-29; OVCAR-5; SF-539; A498.
What all share (experiment): NCI-60 cell line screen, 48 h

Molecules are shown by their SMILES.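 Dose response: 5 concentrations. Exposure: 48 h. Format: 96-well plates. Endpoint: linear interpolation; highest concentration if not reached. GI50 = concentration required for 50% inhibition of growth.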 Active and inactive are the calls of the source. No stated cut-off is given here; in the data, active = GI50 up to about 1.1 µM and inactive = higher.

As to `O=C(Cc1ccccc1)NN1C(=O)C(Cl)C1c1cc(Br)ccc1O` (stereo not given), the GI50 was 3.35 µM (inactive) in the assay with K562; 3.69 µM (inactive) with U-251; 10.4 µM (inactive) with SNB-75; 4.11 µM (inactive) with SW-620; 4.34 µM (inactive) in the assay on M14; 3.65 µM in the assay on HCT-15. Also, the GI50 is 3.05 µM (inactive) with SK-MEL-2; 5.89 µM (inactive) in the assay with 786-0; 2.21 µM (inactive) with OVCAR-4; 3.83 µM (inactive) in the assay on HCT-116; 0.755 µM (active) in the assay on CCRF-CEM; 7.71 µM (inactive) with IGROV-1. Further, the GI50 with SK-MEL-28 is 3.94 µM (inactive); with LOX IMVI it was 4.15 µM (inactive); in the assay with HT-29 it was 7.64 µM (inactive); with OVCAR-5 it was 5.57 µM (inactive).

As to `Cc1nc2sccn2c1C(=O)N/N=C1\SCC(=O)N1C`, the GI50 is > 100 µM (inactive) with K562; > 100 µM (inactive) in the assay with U-251; > 100 µM (inactive) in the assay with SW-620; > 100 µM (inactive) in the assay on SF-539; greater than 100 µM in the assay with HCT-15; > 100 µM (inactive) in the assay on SK-MEL-2. In addition, the GI50 in the assay on 786-0, with HCT-116, in the assay on CCRF-CEM, in the assay with IGROV-1, in the assay on SK-MEL-28 and in the assay with LOX IMVI was > 100 µM (inactive) each time. The GI50 in the assay on HT-29 and in the assay on OVCAR-5 was > 100 µM (inactive) each time.

On to `Cc1cc(Cl)cc2c1NC(=O)C2(O)CC(=O)c1ccc(F)cc1` (stereo not given), for which the GI50 is 39 µM (inactive) with U-251; 26.5 µM (inactive) with SNB-75; 94 µM (inactive) in the assay with SW-620; 88.5 µM (inactive) in the assay on M14; 40.9 µM (inactive) in the assay on SF-539; 74.1 µM with HCT-15. Moreover, the GI50 with SK-MEL-2 was 73.3 µM (inactive); in the assay with 786-0, 27 µM (inactive); with OVCAR-4, 41.9 µM (inactive); in the assay with HCT-116 it was 56.4 µM (inactive); with IGROV-1, 58.9 µM (inactive); in the assay with SK-MEL-28, 37.2 µM (inactive). The GI50 was 27.7 µM (inactive) in the assay with LOX IMVI, 48.1 µM (inactive) in the assay with HT-29 and > 100 µM (inactive) with OVCAR-5.

For `COC(=O)[C@@H](C)[C@H]1CC[C@@](C)(CCC2=C(C)CC3C=C(C)CCC3C2(C)C)OO1` (stereo not given in full), the GI50 in the assay with K562 was 1.3 µM (inactive); in the assay with U-251, 1.42 µM (inactive); in the assay on SNB-75, 1.57 µM (inactive); with SW-620, 0.277 µM (active); in the assay on A498, 1.8 µM (inactive); in the assay on M14 it was 1.73 µM (inactive). The GI50 is 1.82 µM (inactive) in the assay with SF-539; 1.31 µM with HCT-15; 1.59 µM (inactive) in the assay on SK-MEL-2; 0.117 µM (active) with 786-0; 1.52 µM (inactive) in the assay on OVCAR-4; 1.69 µM (inactive) in the assay on HCT-116. The GI50 with CCRF-CEM is 0.165 µM (active); in the assay on IGROV-1 it was 1.42 µM (inactive); in the assay with SK-MEL-28, 1.65 µM (inactive); with HT-29, 1.42 µM (inactive); in the assay with OVCAR-5, 1.87 µM (inactive).

As for `O=C(O)CCCSC(=O)Nc1ccc(/N=N/c2ccccc2)cc1`, the GI50 is 65.9 µM (inactive) in the assay with K562; > 100 µM (inactive) in the assay with U-251; > 100 µM (inactive) in the assay on SW-620; > 100 µM (inactive) with A498; > 100 µM (inactive) in the assay with M14; > 100 µM (inactive) in the assay with SF-539. Also, the GI50 with HCT-15 was greater than 100 µM; with SK-MEL-2, > 100 µM (inactive); in the assay on 786-0, > 100 µM (inactive); in the assay on OVCAR-4, > 100 µM (inactive); in the assay with HCT-116, > 100 µM (inactive); in the assay with CCRF-CEM it was 31.7 µM (inactive). The GI50 in the assay on SK-MEL-28, in the assay on LOX IMVI, in the assay on HT-29 and in the assay on OVCAR-5 was > 100 µM (inactive) in each case.

Take `Cc1cc(-c2ccccc2)cc2[n+]1CC=C2.[O-][Cl+3]([O-])([O-])[O-]`: the GI50 with U-251 was > 100 µM (inactive); in the assay on SNB-75, 35.2 µM (inactive); in the assay on SW-620, > 100 µM (inactive); in the assay on M14 it was > 100 µM (inactive); in the assay on SF-539, > 100 µM (inactive); in the assay on SK-MEL-2, > 100 µM (inactive). Also, the GI50 in the assay with 786-0 was > 100 µM (inactive); in the assay on OVCAR-4, > 100 µM (inactive); in the assay on HCT-116 it was > 100 µM (inactive); in the assay with SK-MEL-28, > 100 µM (inactive); in the assay with LOX IMVI it was > 100 µM (inactive); with HT-29, 52.7 µM (inactive). Further, the GI50 in the assay with OVCAR-5 was > 100 µM (inactive).

`Oc1ccccc1-c1cnnc(-c2ccccc2O)c1`: the GI50 in the assay with K562 is 7.73 µM (inactive); with SNB-75, 20.4 µM (inactive); with SW-620, 37.7 µM (inactive); in the assay with M14 it was 22.2 µM (inactive); in the assay on SF-539, 33.9 µM (inactive); in the assay with SK-MEL-2 it was 20.5 µM (inactive). In addition, the GI50 is 17.9 µM (inactive) in the assay with 786-0; 29.9 µM (inactive) with OVCAR-4; 20.1 µM (inactive) in the assay on HCT-116; 13.4 µM (inactive) with CCRF-CEM; 35.6 µM (inactive) in the assay on SK-MEL-28; 20.3 µM (inactive) with LOX IMVI. Besides, the GI50 was 26.5 µM (inactive) with HT-29 and 28.6 µM (inactive) in the assay with OVCAR-5.

For `CCOP(=O)(OCC)/C(C#N)=C\c1ccsc1`, the GI50 is > 100 µM (inactive) with U-251; > 100 µM (inactive) in the assay on SNB-75; > 100 µM (inactive) in the assay with SW-620; > 100 µM (inactive) in the assay on M14; > 100 µM (inactive) with SF-539; greater than 100 µM in the assay with HCT-15. Also, the GI50 with SK-MEL-2, with 786-0, in the assay with OVCAR-4, in the assay on HCT-116, in the assay with SK-MEL-28 and in the assay with LOX IMVI was > 100 µM (inactive) each time. Also, the GI50 in the assay on HT-29 and with OVCAR-5 was > 100 µM (inactive) in each case.

On to `CC(=O)O[C@H]1C(=O)[C@@]2(C)C(C(OC(=O)c3ccccc3)C3[C@@H](O)C(OC(=O)[C@@H](O)[C@H](NC(=O)c4ccccc4)c4ccc(C(F)(F)F)cc4)C(C)=C1C3(C)C)[C@]1(OC(C)=O)CO[C@@H]1C[C@@H]2O` (stereo not given in full), for which the GI50 in the assay with K562 was 12.4 µM (inactive); in the assay with U-251, 13.3 µM (inactive); with SNB-75, 7.71 µM (inactive); with SW-620, 8 µM (inactive); in the assay with M14, > 25 µM (inactive); in the assay on SF-539 it was 9.98 µM (inactive). The GI50 in the assay on HCT-15 was greater than 25 µM; with SK-MEL-2, > 25 µM (inactive); with 786-0, > 25 µM (inactive); with HCT-116, 9.1 µM (inactive); with CCRF-CEM, 18.2 µM (inactive); in the assay with IGROV-1, > 25 µM (inactive). Besides, the GI50 was > 25 µM (inactive) with SK-MEL-28, 16.1 µM (inactive) in the assay on LOX IMVI, 12.6 µM (inactive) with HT-29 and > 25 µM (inactive) with OVCAR-5.

For the origin of these results see ChEMBL document CHEMBL1201862, “PubChem BioAssay data set” (2004).
